Reference: the SangsterLogP compilation

Experiment: method code SF-AS, from DOI: 10.1248/cpb.39.1736, PMID: 1777927

Row | logP | Compound
1 | 2.32 | CC(=O)c1ccc2cc(O)c(O)cc2c1
2 | 3.36 | CCCCCCNC(=O)/C=C/Oc1ccc(O)c(O)c1
3 | 1.99 | COc1ccc(CNC(=O)C=Cc2ccc(O)c(O)c2)cc1OC
4 | 2.96 | CCCCc1ccc(O)c(O)c1
5 | 2.32 | CCCCCC(O)c1ccc(O)c(O)c1 (stereo not drawn)
6 | 2.72 | CCCCNC(=O)c1ccc2cc(O)c(O)cc2c1
7 | 2.48 | O=C(/C=C/c1ccc(O)c(O)c1)NCc1ccccc1
8 | 3.82 | CCCCC=Cc1ccc(O)c(O)c1
9 | 2.72 | O=C(/C=C/c1ccc(O)c(O)c1)NCCc1ccccc1
10 | 1.67 | O=C(/C=C/c1ccc(O)c(O)c1)CCCCCO
11 | 3.25 | CCc1ccc2cc(O)c(O)cc2c1
12 | 2.3 | COc1ccc(NC(=O)/C=C/c2ccc(O)c(O)c2)cc1OC
13 | 3.37 | CCCCCCNC(=O)C=Cc1ccc(O)c(O)c1
14 | 2.71 | CCCCCCNC(=O)c1ccc(O)c(O)c1
15 | 3.53 | CCCCOC(=O)/C=C/c1ccc(O)c(O)c1
16 | 2.61 | CCCC(=O)C=Cc1ccc(O)c(O)c1
17 | 2.7 | CCOc1ccc2cc(O)c(O)cc2c1
18 | 2.07 | COc1ccc(CCNC(=O)/C=C/c2ccc(O)c(O)c2)cc1OC
